# Data published in patent US20180230143A1, “INHIBITORS OF NHR2 AND/OR RUNX1/ETO-TETRAMERIZATION” (Heinrich-Heine-Universität Düsseldorf, priority 2013, published 2018).
# Read-outs that look alike come from different tables or passages of the source.
# Legend:
# [1] = target: T1, RUNX1-NHR2 protein (Homo sapiens, UniProt Q01196+Q06455); assay: ELISA: tetramer-dependent binding of RUNX1-NHR2 protein to immobilized RUNX3 oligonucleotide; format: biochemical; settings: for inhibition of tetramer-dependent binding of the RUNX1-NHR2 protein to immobilized RUNX3 oligonucleotide, ELISA: [P1]=500 μM and [PPIM]=2000 μM in ELISA; for IC50: inhibition of tetramerization of the RUNX1-NHR2 protein; for inhibition at 2000 µM / inhibition at 1000 µM: read-out: ELISA Inhibition [%] NHR2
# T1 construct: the wild type NHR2 tetramerization domain or the homologous BCR tetramerization domain (highlighted) are optionally enclosed by an N-terminal RUNX1 domain; His6 (C); made in house; host or cells: E. coli BL21(DE3)
# Description: Preferably, for enzyme-linked immunosorbent assays (ELISA), wells of a 96 well plate were coated with 100 ng streptavidin (Dianova) in PBS over night at 4° C. […] Binding of RUNX1-containing proteins to the R3 oligonucleotide was detected with a primary anti-myc antibody (9E10, Santa Cruz) and a secondary HRP-coupled antibody (donkey anti-mouse IgG-HRP, Santa Cruz). ELISA was developed using the Sure Blue TMB Microwell Peroxidase substrate (KLP), and the reaction was stopped with sulfuric acid (1 N). Absorption at 450 nm and 650 nm was measured with the Spectra Max 340, Molecular Devices. Preferably, the ELISA assay is as further described in the experimental section.
# The inhibition of NHR2 tetramerization was measured in vitro by tetramer-dependent binding of a RUNX1-NHR2 protein construct to an immobilized oligonucleotide derived from the RUNX3 promoter sequence in ELISA and ABCD assays. […] Furthermore, the influence of the inhibitors on the viability of RUNX1/ETO-dependent SKNO-1 cells was determined; as a control RUNX1/ETO-independent U937 cells were used.
# The principle of the biochemical assays for measuring inhibition of NHR2 tetramerization is illustrated in FIG. 1. NHR2 tetramerization and its inhibition was measured in a purpose-built sandwich ELISA (enzyme-linked immunosorbent assay: FIG. 1A). • i) The RUNX1-NHR2 tetramer specifically binds to the biotinylated RUNX3-oligonucleotide (RUNX3-oligo^bio) that is immobilized on a streptavidine coated surface (SA). Disrupting the RUNX1-NHR2 tetramer into dimers leads to a release of the RUNX1-NHR2 protein from the surface. Antibody-conjugated horseradish peroxidase (HRP) binds to a primary anti-myc antibody (α-myc AB) that binds to the immobilized myc-labeled RUNX1-NHR2 tetramer. HRP catalyzes the conversion of 3,3′,5,5′-tetramethylbenzidine (TMB) to 3,3′,5,5-tetramethylbenzidine diimine.
# Wells of a 96 well plate were coated with 100 ng streptavidin (Dianova) in PBS over night at 4° C. […] RUNX1-containing proteins were incubated with synthetic peptides or chemical compounds in binding buffer (25 mM HEPES, pH 7.5, 50 mM KCl, 1 mM EDTA, pH 8.0, 10 mM MgCl2, 5% glycerol, 1 mM DTT) in the presence of 1 μg salmon sperm and 1% IGEPAL CA-630 for 5 h and subsequently added to the streptavidin-bound R3 oligonucleotide for 15 min on the 96 well plate. Binding of RUNX1-containing proteins to the R3 oligonucleotide was detected with a primary anti-myc antibody (9E10, Santa Cruz) and a secondary HRP-coupled antibody (donkey anti-mouse IgG-HRP, Santa Cruz). ELISA was developed using the Sure Blue TMB Microwell Peroxidase substrate (KLP), and the reaction was stopped with sulfuric acid (1 N). Absorption at 450 nm and 650 nm was measured with the Spectra Max 340, Molecular Devices.
# [2] = target: T1, RUNX1-NHR2 protein; assay: ABCD (avidin, biotin, complex, DNA) assay with RUNX1-NHR2 protein; format: biochemical; settings: for inhibition at 1000 µM: read-out: ABCD Inhibition [%] NHR2; for inhibition of tetramer-dependent binding of the RUNX1-NHR2 protein to immobilized RUNX3 oligonucleotide, ABCD: c=1100 μM in ABCD assay
# Description: (§1) Oligonucleotides were annealed to the corresponding unmodified antisense oligonucleotide to generate the RUNX1 binding site. Purified RUNX1 proteins were pre-incubated with a compound for 1 h at 4° C. Similarly the biotinylated double-stranded oligonucleotides were pre-incubated with streptavidin coated magnetic beads (Dynabeads M-280 Streptavidin, Invitrogen) for 1 h at 4° C. Protein/compound samples and beads with bound oligonucleotide were incubated in binding buffer (25 mM HEPES, pH 7.5, 50 mM KCl, 1 mM EDTA, pH 8.0, 10 mM MgCl2, 5% glycerol, 1 mM DTT) in the presence of 2% IGEPAL CA-630, 1 μg of salmon sperm, and 0.1% BSA for […]. After washing three times, the bound proteins were eluted from beads in SDS-PAGE sample buffer and resolved on SDS-PAGE followed by immunoblotting with a primary anti-myc (9E10, Santa Cruz) antibody and a secondary HRP-coupled antibody (goat anti-mouse IgG-HRP, Santa Cruz).
# [3] = system: SKNO-1 cells; assay: Xenotransplantation of pre-treated SKNO-1 cells in SCID mice; format: in vivo, mouse; settings: cells treated in vitro with 25 μM for four days, injected subcutaneously, versus untreated cells
# Description: The effect of the inhibition of NHR2 tetramerization was measured in a mouse model (xenotransplantation of SKNO-1 and K562 cells in SCID mice).
# (§3) For the experiment, the SCID- or SCUD-gamma chain mouse model was used. The experiment investigates if the transplantation of the AML cell line SKNO-1 after treatment with either 7.44 or 7.38 leads to reduced tumor growth. […] For this, the cells were treated in vitro with 25 μM of the respective compound for four days. Furthermore, untreated SKNO-1 and CML cell lines were used. […] At day 5 the number of living cells was determined, and 5×10^5 SKNO-1 cells or 5×10^5 K562 cells were injected per transplant. Per mouse, untreated and treated cells were injected into the left and right flank, respectively.
# For determining the tumor volume, the length and the width of the tumor was measured twice weekly, starting one week after the transplantation (FIGS. 5A and 5B). […] At the end of the experiment, the tumors were freed and weighed (FIGS. 5C and 5D).
# [4] = system: SKNO-1 cells; assay: FACS analysis of CD11b expression, SKNO-1 cells; format: cell-based; settings: 25 μM for four days, at the day of injection
# Description: as §3
# At the day of injection, the expression of the surface marker CD11b, a measure for cell differentiation, was determined (FIG. 5E) as was the rate of apoptosis (FIG. 5F).
# [5] = system: SKNO-1 cells; assay: Cell survival assay (XTT), RUNX1/ETO-dependent SKNO-1 cells; format: cell-based; settings: daily treated with 1 μM or 10 μM; XTT at days 3, 5, and 7
# Description: Cell proliferation and viability were measured with the cell proliferation kit II (XTT, Roche Applied Science). The XTT assay was performed at days 3, 5, and 7. […] SKNO-1 cells were cultured in RPMI 1640+10% FCS and 7 ng ml^−1 human GM-CSF. […] Cell proliferation and viability were measured with the cell proliferation kit II (XTT, Roche Applied Science). 3000 cells per well were cultured in a 96 well plate and daily treated with compounds at different concentrations. The XTT assay was performed at days 3, 5, and 7.
# [6] = target: T2, RUNX1-BCR protein (Homo sapiens, UniProt P11274+Q01196); assay: ABCD (avidin, biotin, complex, DNA) assay with RUNX1-BCR protein; format: biochemical; settings: for inhibition at 1000 µM: read-out: ABCD Inhibition [%] BCR; for inhibition of binding of the RUNX1-BCR protein, ABCD: c=1100 μM in ABCD assay
# T2 construct: replacing the NHR2 domain of the construct with the homologous BCR tetramerization domain (RUNX1-BCR protein); His6 (C); made in house; host or cells: E. coli BL21(DE3)
# Description: as §1
# [7] = target: T2, RUNX1-BCR protein; assay: ELISA: tetramer-dependent binding of RUNX1-BCR protein to immobilized RUNX3 oligonucleotide (selectivity control); format: biochemical; settings: for inhibition at 1000 µM / inhibition at 2000 µM: read-out: ELISA Inhibition [%] BCR; for inhibition of binding of the RUNX1-BCR protein, ELISA: [P1]=500 μM and [PPIM]=2000 μM in ELISA
# [8] = target: T3, NHR2 protein (Homo sapiens, UniProt Q06455); assay: BS3 cross-linking assay of NHR2 oligomers; format: biochemical; settings: for inhibition of NHR2 tetramerization (reduction of BS3 cross-linked NHR2 oligomers): c=1100 μM
# T3 construct: the wild type NHR2 tetramerization domain or the homologous BCR tetramerization domain (highlighted) are optionally enclosed by an N-terminal RUNX1 domain; His6 (C); made in house; host or cells: E. coli BL21(DE3)
# T3 sequence (Q06455 334-400): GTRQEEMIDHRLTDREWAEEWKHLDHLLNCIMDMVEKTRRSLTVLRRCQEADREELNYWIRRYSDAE
# Description: (§2) Preferably, for the cross-linking assay, purified NHR2 protein or NHR2-containing protein (5 μM) was incubated with the peptides at 4° C. for 1 h. The BS^3 (Bis[sulfosuccinimidyl] suberate) crosslink-reaction was performed at a final concentration of 1 mM for 30 min at RT. Tris-HCl (0.05 M, pH 7.4) was added to the reaction mix and incubated for 10 min to stop the reaction. Protein-oligomer nation was analyzed by western blotting. For protein detection, the membrane was incubated with a primary anti-myc antibody (9E10, Santa Cruz) and a secondary HRP-coupled antibody (goat anti-mouse IgG-HRP, Santa Cruz). Preferably, the cross-linking assay is as further described in the experimental section.
# as §2, with “Purified” for “Preferably, for the cross-linking assay, purified”, “NHR2” for “NHR2 protein or NHR2-containing”, “Protein-oligomerization” for “Protein-oligomer nation”, “Cruz).” for “Cruz). Preferably, the cross-linking assay is as further described in the experimental section.”
# [9] = measured at 2 mM concentration, RUNX1-NHR2 protein
# [10] = relative inhibition at 1 mM inhibitor concentration, RUNX1-NHR2 protein
# [11] = relative inhibition at 1 mM inhibitor concentration, RUNX1-BCR
# [12] = measured at 2 mM concentration, RUNX1-BCR
# T1 sequence (Q01196+Q06455 fused): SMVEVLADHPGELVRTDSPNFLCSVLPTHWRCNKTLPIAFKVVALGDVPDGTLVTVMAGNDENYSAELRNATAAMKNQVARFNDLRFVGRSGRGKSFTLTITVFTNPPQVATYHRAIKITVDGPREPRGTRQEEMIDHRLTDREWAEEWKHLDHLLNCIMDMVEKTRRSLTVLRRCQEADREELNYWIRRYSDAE
# T2 sequence (Q01196+P11274 fused): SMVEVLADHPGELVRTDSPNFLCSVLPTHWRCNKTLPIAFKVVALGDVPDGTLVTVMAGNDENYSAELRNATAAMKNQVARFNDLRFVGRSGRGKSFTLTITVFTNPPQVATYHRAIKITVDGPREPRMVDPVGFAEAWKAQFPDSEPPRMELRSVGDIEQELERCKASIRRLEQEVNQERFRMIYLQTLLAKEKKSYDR
compound,measurement,setting,value
"Cc1c(C(=O)O)[nH]c(/C=C/C(=O)O)nc1=O [Compound 7.38, (E)-2-(2-carboxyvinyl)-5-methyl-6-oxo-3,6-dihydropyrimidine-4-carboxylic acid, reference compound]","inhibition of tetramer-dependent binding of the RUNX1-NHR2 protein to immobilized RUNX3 oligonucleotide, ELISA",[1],not
same,IC50,[1],> 2000 µM
same,inhibition at 2000 µM,[1]; [9],4%
same,inhibition at 1000 µM,[2]; [10],20.1%
same,tumor growth (tumor volume) of transplanted SKNO-1 cells,[3],small reduction
same,increase of the CD11b expression in SKNO-1 cells,[4],2%
same,proliferation of SKNO-1 cells (XTT assay),[5],did not affect
same,inhibition at 1000 µM,[6]; [11],26.1%
"COc1ccc(OC)c2[nH]c(C(=O)NCC3(CC(=O)O)CCCCC3)cc12 [Compound 5.18, 2-(1-((4,7-dimethoxy-1H-indole-2-carboxamido)methyl)cyclohexyl)acetic acid]",inhibition at 1000 µM,[7]; [11],3.9%
same,inhibition at 1000 µM,[1]; [10],80.5%
same,inhibition at 1000 µM,[2]; [10],83%
same,inhibition at 1000 µM,[6]; [11],52.6%
"Cc1oc(C(=O)O)cc1CSCc1cc(C(=O)O)oc1C [Compound 5.9, 5,5′-dimethyl-4,4′-(sulfanediylbis(methyl))-di(furan-2-carboxylic acid)]",inhibition at 1000 µM,[7]; [11],20.7%
same,inhibition at 1000 µM,[1]; [10],51.7%
same,inhibition at 1000 µM,[2]; [10],52.5%
same,inhibition at 1000 µM,[6]; [11],14.6%
"O=C(CSc1nc2ccccc2[nH]1)Nc1ccc(Cl)c(C(=O)O)c1 [Compound 5.4, 5-(2-(1H-benzo[d]imidazol-2-ylthio)acetamido)-2-chlorobenzoic acid]",inhibition at 1000 µM,[7]; [11],35.4%
same,inhibition at 1000 µM,[1]; [10],89.7%
same,inhibition at 1000 µM,[2]; [10],63.9%
same,inhibition at 1000 µM,[6]; [11],-3.3%
"Ac-VARRCAEAAREALNYAIR-NH2 [P3, reference compound]",IC50,[1],> 2000 µM
same,inhibition of NHR2 tetramerization (reduction of BS3 cross-linked NHR2 oligomers),[8],"neither P2, P3 nor the unrelated peptide CP inhibit NHR2 tetramerization"
"Cc1c(CC(=O)NCCC(=O)O)c(=O)oc2c(C)c3occ(C(C)(C)C)c3cc12 [Compound 5.17, 3-(2-(3-tert-butyl-5,9-dimethyl-7-oxo-7H-furo[3,2-g]chromen-6-yl)acetamido)propanoic acid]",inhibition at 1000 µM,[7]; [11],15.9%
same,inhibition at 1000 µM,[1]; [10],41.7%
same,inhibition at 1000 µM,[2]; [10],89.5%
same,inhibition at 1000 µM,[6]; [11],95.3%
"O=C(O)c1ccccc1OCc1cn2ccccc2n1 [Compound 2b, 2-(imidazo[1,2-a]pyridin-2-ylmethoxy)benzoic acid]",inhibition at 50 µM,"[7]; measured at 50 μM concentration, RUNX1-BCR",41.5%
same,inhibition at 50 µM,"[1]; measured at 50 μM concentration, RUNX1-NHR2 protein",83.1%
same,inhibition at 1000 µM,[2]; [10],49.4%
same,inhibition at 1000 µM,[6]; [11],11.8%
"COc1cc(CC(C(=O)O)C(C)C(=O)c2ccc3c(c2)OCO3)cc(OC)c1OC (stereo not drawn) [Compound 7.18, 4-(benzo[d][1,3]dioxol-5-yl)-3-methyl-4-oxo-2-(3,4,5-trimethoxybenzyl)butanoic acid]","inhibition of binding of the RUNX1-BCR protein, ELISA",[7],is not inhibited
same,inhibition at 2000 µM,[7],-6.7%
same,"inhibition of tetramer-dependent binding of the RUNX1-NHR2 protein to immobilized RUNX3 oligonucleotide, ELISA",[1],selectively inhibit
same,inhibition at 2000 µM,[1],47.7%
same,"inhibition of tetramer-dependent binding of the RUNX1-NHR2 protein to immobilized RUNX3 oligonucleotide, ABCD",[2],selectively inhibit
same,inhibition at 1000 µM,[2],80.2%
same,"inhibition of binding of the RUNX1-BCR protein, ABCD",[6],is not inhibited
same,inhibition at 1000 µM,[6],-2.2%
"COc1ccc(-c2ccc(CCC(=O)O)n2CCC(=O)O)cc1 [Compound 5.8, 3,3′-(5-(4-methoxyphenyl)-1H-pyrrole-1,2-diyl)dipropanoic acid]",inhibition at 1000 µM,[7],12%
same,inhibition at 1000 µM,[1],70.3%
same,inhibition at 1000 µM,[2],68.2%
same,inhibition at 1000 µM,[6],56.1%
"O=C(O)COc1cccc(OCC(=O)O)c1 [Compound 7.4, 2,2′-(1,3-phenylenebis(oxy))diacetic acid]",inhibition at 2000 µM,[7]; [12],10%
same,inhibition at 2000 µM,[1]; [9],71.6%
same,inhibition at 1000 µM,[2]; [10],47.4%
same,inhibition at 1000 µM,[6]; [11],6.1%
"Ac-VLRRCQEADREELNYWIR-NH2 [P1, reference compound]","inhibition of binding of the RUNX1-BCR protein, ELISA",[7],is not inhibited
same,inhibition at 1000 µM,[7]; [11],9.2%
same,"inhibition of tetramer-dependent binding of the RUNX1-NHR2 protein to immobilized RUNX3 oligonucleotide, ELISA",[1],selectively inhibit
same,IC50,[1],460 µM
same,inhibition at 1000 µM,[1]; [10],42.8%
same,"inhibition of tetramer-dependent binding of the RUNX1-NHR2 protein to immobilized RUNX3 oligonucleotide, ABCD",[2],selectively inhibit
same,"inhibition of binding of the RUNX1-BCR protein, ABCD",[6],is not inhibited
same,dose dependence of inhibition of NHR2 tetramerization (cross-linking),[8],dose-dependent
same,inhibition of NHR2 tetramerization (reduction of BS3 cross-linked NHR2 oligomers),[8],inhibit NHR2 tetramerization
same,IC50,[8]; read-out: IC50 of inhibition of NHR2 tetramerization (cross-linking),250 µM
"Cc1ccc(OCC(=O)O)c(OCC(=O)O)c1 [Compound 7.3, 2-[2-(carboxymethyloxy)-4-methyl-phenoxy]acetic acid]",inhibition at 2000 µM,[7]; [12],31.5%
same,inhibition at 2000 µM,[1]; [9],94.4%
same,inhibition at 1000 µM,[2]; [10],57.7%
same,inhibition at 1000 µM,[6]; [11],28.5%
